# Data from patent publication US6689762B1, “Composition and methods for treatment of HIV infection” (Enzon Pharmaceuticals, Inc., priority 1998, dated 2004).
# Several values for one entry are separate records, joined by “and”; a condition that tells them apart may be missing. Identical values can stand only once.
# B1: PEG-ASNase: asparaginase conjugated with polyethylene glycol (PEG); sold under the name ONCASPAR by Rhône-Poulenc Rorer (conjugate, UniProt P00805 23-348, looked up)
# L-asparaginase 2: LPNITILATGGTIAGGGDSATKSNYTVGKVGVENLVNAVPQLKDIANVKGEQVVNIGSQDMNDNVWLTLAKKINTDCDKTDGFVITHGTDTMEETAYFLDLTVKCDKPVVMVGAMRPSTSMSADGPFNLYNAVVTAADKASANRGVLVVMNDTVLDGRDVTKTNTTDVATFKSVNYGPLGYIHNGKIDYQRTPARKHTSDTPFDVSKLNELPKVGIVYNYANASDLPAKALVDAGYDGIVSAGVGNGNLYKSVFDTLATAAKTGTAVVRSSRVPTGATTQDAEVDDAKYGFVASGTLNPQKARVLLQLALTQTKDPQQIQQIFNQY
# modifications: PEG conjugate (pegaspargase)
# notes: asparaginase conjugated with polyethylene glycol (PEG); sold under the name ONCASPAR by Rhône-Poulenc Rorer
# Tests used:
# Assay type in all cases: cell-based
# [1] = test system: HIV-RT in supernatants of HIV-1 infected CEM/0 T-cells; experiment: HIV-RT ELISA in supernatants of HIV-1 infected CEM/0 T-cells; details: for inhibition of HIV-RT in supernatants: Experiment 8 text, day 7; for HIV-RT (negative values set to 0): Table 6, per specimen
# Protocol: The following is a general procedure for the HIV-reverse transcriptase assay:
# Materials and Methods: The cell line used for this experiment is CEM/0, a human T-cell leukemic cell line. PEG-ASNase (ONCASPAR) is provided by Rhone-Poulenc Rorer. Saquinavin (SQ) is commercially available. AZT is purchased from Sigma. […] The drug concentrations used are as follows:
# (§1) Briefly, 3×10^6 cells/ml are stimulated with PHA+ media for 48 hours at 37° C. with 5% CO2. Also, the same number of cells are incubated in PHA free media for 48 hours to serve as the negative control. At this point the cells are inoculated with the HIV-1 virus as per standard protocol. Note that in this experiment, the HIV containing supernatant from the PLA-stimulated healthy human peripheral mononuclear cells (PBMC) is not removed from the PHA-stimulated CEM/0 cell culture. […] These virus particles are released by already infected T-cells and/or lymph nodes of patients.
# (§2) The experimental drugs are added to the cells in the appropriate concentrations at the same time as viral inoculation or 90 minutes after the viral incubation, a time sufficient for the T-cells to be infected and start producing new HIV-1 virus particles. The control cells are resuspended in drug-free media for the duration of the exposure which lasted seven days. Aliquots of media from the control flasks only are obtained on day 5 post Rx. At day seven, three 1 ml each, aliquots of media are removed from the flasks and stored under liquid nitrogen. In addition, the remaining cells are split into three and then pelleted and stored at −80° C.
# [2] = test system: HIV-RNA in supernatant of HIV-1 infected CEM/0 T-cells; experiment: HIV-1 quantitative RNA assay (HIV-1 Monitor) in supernatants of CEM/0 T-cells; design: inhibition of HIV-RNA in the supernatants in comparison to untreated control / % OF CONTROL / % control: concentration or dose not given beside the values; details: for N*: day 7 post Rx, PEG 0.400 IU/ml, SAQ 25 uM, AZT 1 uM, combinations PEG 0.233 IU/ml + SAQ 14.52 uM; for inhibition of HIV-RNA in the supernatants in comparison to untreated control: Experiment 6 text; for % control / MEAN N: Table 3; for Log 10 N: Table 3, per flask
# From the text: It should be noted that “PEG” in Table 3 represents PEG-ASNase.
# (§3) Materials and Methods: The cell line used for these studies is CEM/0, a human T-cell leukemic cell line. PEG-ASNase (ONCASPAR) is provided by Rhone-Poulenc Rorer. Saquinavin is commercially available. AZT is purchased from Sigma. MISID, a ribonucleotide reductase inhibitor, is as described in Nandy P, Lien E J, Avramis V I, Med. Chem. Res. 1995, 5:664-679. RPMI-1640 media (Irvine Scientific, Irvine, Calif.), is enriched with 10% Fetal Calf Serum (Gemini Biosource, Calabasas, Calif.), 5% 1M Hepes Buffer solution and 5% Non-essential amino acids (Irvine Scientific, Irvine, Calif.). The drug concentrations used are as follows:
# as §1, with “from the PHA-stimulated healthy human” for “from the PLA-stimulated healthy human”, “particles are continuously released by” for “particles are released by”
# as §2, with “C. Supernatant specimens are obtained form these T-cell cultures and are frozen at −80° C. The samples produced from this experiment are itemized. The cell pellets of the cellular cultures (see Experiment 9) from the 90 minute viral incubation flasks are assayed for HIV-RNA quantitative assay using a kit for the assay, non-radioactive. […] The standard curve is determined and the HIV-RNA levels for the experimental samples are calculated and reported previously.” for “C.”
# This experiment is carried out using a similar procedure, and the same concentrations of materials as in Experiment 10, however the exposure of HIV-RNA in T-cell supernatants to a combination of PEG-ASNase, Saquinavir, AZT and 3TC is measured. It should be noted that “PEG” in Table 10 represents PEG-ASNase.
# [3] = test system: HIV-RNA in HIV-1 infected CEM/0 T-cell pellets; experiment: HIV-1 quantitative RNA assay (HIV-1 Monitor) in CEM/0 T-cell pellets; details: for mean, X3: Table 7; for N*: Table 7, per specimen, day 7, PEG 0.400 IU/ml, SAQ 25 uM, AZT 1 uM, MISID 0.685 uM, combinations PEG 0.233 IU/ml + SAQ 14.52 uM; for % control: Table 7 and text of Experiment 9; for Log 10 N: Table 2, per flask
# Protocol: This experiment is carried out using a similar procedure, and the same concentrations of materials as in Experiment 1, however the exposure of HIV-RNA in T-cell pellets to a combination of PEG-ASNase and Saquinavir is measured. […] It should be noted that “PEG” in Table 2 represents PEG-ASNase.
# as §3, with “The cell” for “Materials and Methods: The cell”, “inhibitor, is synthesized as indicated” for “inhibitor, is as described”, “synthesized as indicated in Nandy” for “is as described in Nandy”
# as §1, with “PHA-stimulated” for “PLA-stimulated”
# as §2
# The samples produced from this experiment are itemized. The cell pellets of the cellular cultures (see Experiment 7) from the 90 minute viral incubation flasks are assayed for HIV-RNA quantitative assay using a kit for the assay, non-radioactive. The standard curve is determined and the HIV-RNA levels for the experimental samples are calculated and reported previously.
molecule,measurement,setting,value
"Cc1cn([C@H]2C[C@H](N=[N+]=[N-])[C@@H](CO)O2)c(=O)[nH]c1=O [AZT, zidovudine]",inhibition of HIV-RT in supernatants,[1],Great inhibition
same,HIV-RT (negative values set to 0),[1],0 pg/well
same,MEAN,[2]; Table 8,120691 copies/mL
same,N*,"[2]; Table 8, per specimen, 90 min viral inoculation, MISID 0.685 uM",120981 copies/mL and 121288 copies/mL and 119805 copies/mL
same,% OF CONTROL,[2]; Table 8 and Experiment 10,61.74%
same,MEAN,[2]; Table 10,1437 copies/mL
same,N*,"[2]; Table 10, per specimen, 3TC 1 uM",1203 copies/mL and 1409 copies/mL and 1700 copies/mL
same,% OF CONTROL,[2]; Table 10 and Experiment 11,32.48%
same,"mean, X3",[3],102473 copies/cell pellet
same,N*,[3],107269 copies/cell pellet and 97933 copies/cell pellet and 102217 copies/cell pellet
same,% control,[3],48%
CC(C)(C)NC(=O)[C@@H]1C[C@@H]2CCCC[C@@H]2CN1C[C@@H](O)[C@H](Cc1ccccc1)NC(=O)[C@H](CC(N)=O)NC(=O)c1ccc2ccccc2n1 [Saquinavir],inhibition of HIV-RT in supernatants,[1],Great inhibition
same,HIV-RT (negative values set to 0),[1],0 pg/well
same,inhibition of HIV-RNA in the supernatants in comparison to untreated control,[2],~68%
same,% control,[2],32.38%
same,MEAN N,[2],42100 copies/mL
same,Log 10 N,[2]; listed as SAQ,4.61 and 4.60 and 4.66
same,MEAN,[2]; Table 8,124762 copies/mL
same,N*,"[2]; Table 8, per specimen, 90 min viral inoculation, MISID 0.685 uM, listed as SAQ",122515 copies/mL and 128455 copies/mL and 123316 copies/mL
same,% OF CONTROL,[2]; Table 8 and Experiment 10,63.82%
same,MEAN,[2]; Table 10,2438 copies/mL
same,N*,"[2]; Table 10, per specimen, 3TC 1 uM, listed as SAQ",2816 copies/mL and 2375 copies/mL and 2122 copies/mL
same,% OF CONTROL,[2]; Table 10 and Experiment 11,approximately 55%
same,% OF CONTROL,"[2]; Table 10 and Experiment 11, listed as SAQ",55.08%
same,inhibition of HIV-1 RNA production in comparison with the control,[3]; Experiment 5 text,approximately 36%
same,Log 10 N,[3]; listed as SAQ,5.06 and 5.09
same,"mean, X3",[3],125628 copies/cell pellet
same,N*,[3]; listed as SAQ,138583 copies/cell pellet and 109522 copies/cell pellet and 128780 copies/cell pellet
same,% control,[3],59%
B1,HIV-RT (negative values set to 0),[1],0 pg/well
same,inhibition of HIV-RNA in the supernatants in comparison to untreated control,[2],approximately 60%
same,% control,[2],40.78%
same,MEAN N,[2],53020 copies/mL
same,Log 10 N,[2]; listed as PEG,4.71 and 4.72 and 4.73
same,MEAN,[2]; Table 8,143761 copies/mL
same,N*,"[2]; Table 8, per specimen, 90 min viral inoculation, MISID 0.685 uM, listed as PEG",147041 copies/mL and 142575 copies/mL and 141667 copies/mL
same,% OF CONTROL,[2]; Table 8 and Experiment 10,73.54%
same,MEAN,[2]; Table 10,3233 copies/mL
same,N*,"[2]; Table 10, per specimen, 3TC 1 uM, listed as PEG",3132 copies/mL and 3048 copies/mL and 3520 copies/mL
same,% OF CONTROL,[2]; Table 10 and Experiment 11,~73%
same,% OF CONTROL,"[2]; Table 10 and Experiment 11, listed as PEG",73.06%
same,Log 10 N,[3]; listed as PEG,5.26 and 5.42
same,"mean, X3",[3],173448 copies/cell pellet
same,N*,[3]; listed as PEG,183977 copies/cell pellet and 156304 copies/cell pellet and 180062 copies/cell pellet
same,% control,[3],81%
same,effect on HIV-RNA in cell pellets,"[3]; text of Experiments 5, 6 and 9",no apparent effect
